PubChem BioAssay AID248 (DTP/NCI, 2004)
Inconclusive results and toxic doses are left out. Cut-off read from the data, not from the text of the source: active = T/C of 150% or more; inactive = T/C below 125%.

Test system: L1210 leukemia ip in BDF1 mice, survival T/C
Assay: NCI In Vivo Anticancer Drug Screen. Data for tumor model L1210 Leukemia (intraperitoneal) in B6D2F1 (BDF1) mice
Details: endpoint: mean survival time, higher = longer survival
Procedure, shortened: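 Ratio derived from survival: compound-dosed mice over vehicle-dosed mice, all bearing a transplantable tumor.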

Measured: T/C

ClCCN(CCCl)c1ccc(C=Nc2ccc(-c3csc(-c4ccccc4)n3)c(Cl)c2)cc1
inactive: dose: 100.0 mg/kg/injection, schedule: Q01DX001 (sc), vehicle: carboxymethylcellulose (CMC) 94 % of control | dose: 200.0 mg/kg/injection, schedule: Q01DX001 (sc), vehicle: carboxymethylcellulose (CMC) 97 % of control | dose: 400.0 mg/kg/injection, schedule: Q01DX001 (sc), vehicle: carboxymethylcellulose (CMC) 103 % of control

COc1cc([N+](=O)[O-])ccc1NC(=O)Oc1ccc(-c2ccccc2)cc1Cl
inactive: dose: 100.0 mg/kg/injection, schedule: Q01DX009 (ip), vehicle: Klucel (hydroxypropylcellulose) (HPC) 93 % of control | dose: 200.0 mg/kg/injection, schedule: Q01DX009 (ip), vehicle: Klucel (hydroxypropylcellulose) (HPC) 96 % of control | dose: 400.0 mg/kg/injection, schedule: Q01DX009 (ip), vehicle: Klucel (hydroxypropylcellulose) (HPC) 95 % of control
